From ChEMBL document CHEMBL1152036, “Acyclic nucleoside triphosphate analogs as terminators in biocatalytic DNA replication” (Bioorg Med Chem Lett, 1997)

Assays:
[1] = tested on: HIV-1 reverse transcriptase (Human immunodeficiency virus 1); experiment: The compound was evaluated as substrate for DNA replicating enzyme, HIV-1 RT at a concentration of 1 mM; Not assayed
Nucleic Acid [2] = experiment: The compound was evaluated as substrate for DNA replicating enzyme, rTth DNA polymerase; No incorporation; format: nucleic-acid assay
[3] = target: DNA polymerase I, thermostable (Thermus aquaticus) (UniProt P19821); experiment: The compound was evaluated as substrate for DNA replicating enzyme, Taq DNA polymerase at a concentration of 100 uM; Termination
Nucleic Acid [4] = experiment: The compound was evaluated as substrate for DNA replicating enzyme, AmpliTaq FS DNA polymerase at a concentration of 100 uM; Termination; format: nucleic-acid assay
Nucleic Acid [5] = experiment: The compound was evaluated as substrate for DNA replicating enzyme, Bst DNA polymerase; No incorporation; format: nucleic-acid assay
[6] = tested on: HIV-1 reverse transcriptase (Human immunodeficiency virus 1); experiment: The compound was evaluated as substrate for DNA replicating enzyme, HIV-1 RT at a concentration of 1 mM; Termination
[7] = target: DNA polymerase I, thermostable (Thermus aquaticus) (UniProt P19821); experiment: The compound was evaluated as substrate for DNA replicating enzyme, Taq DNA polymerase at a concentration of 1 mM; Termination
Nucleic Acid [8] = experiment: The compound was evaluated as substrate for DNA replicating enzyme, AmpliTaq FS DNA polymerase at a concentration of 1 mM; Termination; format: nucleic-acid assay
Nucleic Acid [9] = experiment: The compound was evaluated as substrate for DNA replicating enzyme, AmpliTaq DNA polymerase; No incorporation; format: nucleic-acid assay

Measured: Activity

Sequence of DNA polymerase I, thermostable (Thermus aquaticus) (P19821 whole entry): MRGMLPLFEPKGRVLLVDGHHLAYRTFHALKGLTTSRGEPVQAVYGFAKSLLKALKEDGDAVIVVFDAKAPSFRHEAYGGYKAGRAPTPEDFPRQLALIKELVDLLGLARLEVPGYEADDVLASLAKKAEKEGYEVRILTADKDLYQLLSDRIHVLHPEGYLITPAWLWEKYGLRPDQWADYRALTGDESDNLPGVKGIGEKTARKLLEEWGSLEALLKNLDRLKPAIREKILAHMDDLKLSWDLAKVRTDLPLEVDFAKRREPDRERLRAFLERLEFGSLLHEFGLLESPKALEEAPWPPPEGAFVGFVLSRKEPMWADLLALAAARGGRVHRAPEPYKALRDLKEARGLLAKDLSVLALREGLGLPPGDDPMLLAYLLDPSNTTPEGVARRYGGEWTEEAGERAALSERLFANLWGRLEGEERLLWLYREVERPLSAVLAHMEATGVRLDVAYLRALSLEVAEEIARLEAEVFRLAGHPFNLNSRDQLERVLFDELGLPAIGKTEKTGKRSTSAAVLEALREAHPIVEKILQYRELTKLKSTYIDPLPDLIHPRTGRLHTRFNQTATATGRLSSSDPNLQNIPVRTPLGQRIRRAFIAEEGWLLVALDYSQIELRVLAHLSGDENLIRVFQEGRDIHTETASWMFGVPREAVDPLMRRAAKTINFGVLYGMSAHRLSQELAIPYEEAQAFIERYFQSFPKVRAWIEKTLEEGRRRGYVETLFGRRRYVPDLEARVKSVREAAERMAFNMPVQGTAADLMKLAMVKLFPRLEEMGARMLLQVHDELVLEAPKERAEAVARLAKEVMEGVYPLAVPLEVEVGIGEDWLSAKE

CN(CCOP(=O)(O)OP(=O)(O)OP(=O)(O)O)C(=O)Cn1cnc2c(N)ncnc21
inactive: [1] No incorporation | Nucleic Acid [2] No incorporation | [3] No incorporation | Nucleic Acid [4] No incorporation | Nucleic Acid [5] No incorporation

Cc1cn(CC(=O)N(C)CCOP(=O)(O)OP(=O)(O)OP(=O)(O)O)c(=O)[nH]c1=O
inactive: [6] No incorporation | [7] No incorporation | Nucleic Acid [8] No incorporation | Nucleic Acid [2] No incorporation | Nucleic Acid [5] No incorporation | Nucleic Acid [9] No incorporation
